According to ChEMBL document CHEMBL3091401, “Discovery of a potent respiratory syncytial virus RNA polymerase inhibitor” (Bioorg Med Chem Lett, 2013):
Converted amounts (≈) assume the structure as drawn.

Columns and labels:
[1] = Cytotoxicity against human Hep2 cells; assay type: cell-based, HEp-2
[2] = Aqueous solubility of the compound; assay type: physicochemical; details: buffer
[3] = tested on: Respiratory syncytial virus; assay: Antiviral activity against Respiratory syncytial virus B-Washington infected in human Hep2 cells after 3 days by ELISA; assay type: functional, organism-based; details: HEp-2, 72 h
[4] = tested on: Respiratory syncytial virus; assay: Antiviral activity against Respiratory syncytial virus A2 infected in human Hep2 cells after 3 days by ELISA; assay type: functional, organism-based; details: A2, HEp-2, 72 h
[5] = tested on: Respiratory syncytial virus; assay: Antiviral activity against Respiratory syncytial virus A2 infected in hamster BHK21 cells after 2 days by luciferase reporter gene assay; assay type: functional, organism-based; details: human respiratory syncytial virus, A2, BHK-21, 48 h
[6] = Cytotoxicity against hamster BHK21 cells; assay type: cell-based, Mesocricetus auratus, BHK-21

In the case of O=C(NC1CC1)c1cc2c(s1)-c1ccccc1N(C(=O)c1ccc(NC(=O)c3cccnc3N3CCC4(CCOCC4)CC3)cc1)CC2, the CC50 [1] is reported as greater than 50000 nM, the solubility [2] is reported as less than 1 µM and the EC50 [3] is reported as 2200 nM. It also gave an EC50 [4] of 30 nM and an EC50 [5] of 40 nM.
O=C(NC1CC1)c1cc2c(s1)-c1ccccc1N(C(=O)c1ccc(NC(=O)c3cccnc3N3CC4(CCOCC4)C3)cc1)CC2 showed a CC50 [1] greater than 50000 nM, a solubility [2] of less than 1 µM and an EC50 [3] of 500 nM. The EC50 [4] was 10 nM and the EC50 [5] was less than 7 nM.
For O=C(NC1CC1)c1cc2c(s1)-c1ccccc1N(C(=O)c1ccc(NC(=O)c3ccncc3N3CCC4(CC3)COC4)cc1)CC2, the CC50 [1] was 4800 nM, the solubility [2] was less than 1 µM and the EC50 [3] was 5100 nM. It also gave an EC50 [4] of less than 210 nM and an EC50 [5] of 160 nM.
Work on O=C(NC1CC1)c1cc2c(s1)-c1ccccc1N(C(=O)c1ccc(NC(=O)c3cnccc3N3CCC4(CC3)COC4)cc1)CC2 yielded a CC50 [1] of 34000 nM, a solubility [2] of 9 µM (≈ 5.7 µg/mL) and an EC50 [3] of 14000 nM. It also gave an EC50 [4] of 680 nM and an EC50 [5] of 570 nM.
Compound O=C(NC1CC1)c1cc2c(s1)-c1ccccc1N(C(=O)c1ccc(NC(=O)c3ncccc3N3CCC4(CC3)COC4)cc1)CC2 has a CC50 [1] of 43000 nM, a solubility [2] of less than 1 µM and an EC50 [3] of 49000 nM. For the same compound, the EC50 [4] was 470 nM and the EC50 [5] was 350 nM.
Work on O=C(NC1CC1)c1cc2c(s1)-c1ccccc1N(C(=O)c1ccc(NC(=O)c3ccccc3N3CCC4(CC3)COC4)cc1)CC2 yielded a CC50 [1] greater than 50000 nM, a solubility [2] of less than 1 µM and an EC50 [3] greater than 50000 nM. For the same compound, the EC50 [4] was less than 210 nM and the EC50 [5] was 190 nM.
Compound COc1ccc(C(=O)Nc2ccc(C(=O)N3CCc4cc(C(=O)NC5CC5)sc4-c4ccccc43)cc2)c(N2CCC3(CC2)COC3)n1 has a CC50 [1] greater than 50000 nM, a solubility [2] of less than 1 µM and an EC50 [3] of 1800 nM. For the same compound, the EC50 [4] was less than 210 nM and the EC50 [5] was 20 nM.
Work on O=C(NC1CC1)c1cc2c(s1)-c1ccccc1N(C(=O)c1ccc(NC(=O)c3cccnc3N3CCCC3)nc1)CC2 yielded a solubility [2] of 3 µM (≈ 1.74 µg/mL), an EC50 [3] greater than 50000 nM and a CC50 [6] greater than 50000 nM. For the same compound, the EC50 [4] was greater than 50000 nM and the EC50 [5] was greater than 50000 nM.
For O=C(NC1CC1)c1cc2c(s1)-c1ccccc1N(C(=O)[C@H]1CC[C@H](NC(=O)c3cccnc3N3CCCC3)CC1)CC2, the solubility [2] was 11 µM (≈ 6.42 µg/mL), the CC50 [6] was greater than 50000 nM and the EC50 [5] was greater than 50000 nM.
O=C(NC1CC1)c1cc2c(s1)-c1ccccc1N(C(=O)N1CCC(NC(=O)c3cccnc3N3CCCC3)CC1)CC2 showed a solubility [2] of 26 µM (≈ 15.2 µg/mL), a CC50 [6] greater than 50000 nM and an EC50 [5] of 14000 nM.
Work on O=C(NC1CC1)c1cc2c(s1)-c1ccccc1N(C(=O)[C@H]1C[C@@H](NC(=O)c3cccnc3N3CCCC3)C1)CC2 yielded a solubility [2] of 2 µM (≈ 1.11 µg/mL), a CC50 [6] greater than 50000 nM and an EC50 [5] greater than 50000 nM.
For O=C(NC1CC1)c1cc2c(s1)-c1ccccc1N(C(=O)[C@H]1C[C@H](NC(=O)c3cccnc3N3CCCC3)C1)CC2, the solubility [2] was 3 µM (≈ 1.67 µg/mL), the CC50 [6] was greater than 50000 nM and the EC50 [5] was 16000 nM.
Compound O=C(NC1CC1)c1cc2c(s1)-c1cnccc1N(C(=O)c1ccc(NC(=O)c3cccnc3N3CCCC3)cc1)CC2 has a solubility [2] of 1 µM (≈ 0.579 µg/mL), an EC50 [3] greater than 50000 nM and a CC50 [6] greater than 50000 nM. The EC50 [4] was 1100 nM and the EC50 [5] was 2200 nM.
